{
  "source": "patent US10285405B2",
  "about": "“Oil carrying particulate matter and uses thereof” (Nobactra Israel Ltd., priority 2013, dated 2019)",
  "key": {"pepper plants": {"test_system": "pepper plants", "assay": "Spraying the emulsions on pepper plants for phytotoxicity symptoms", "assay_type": "in vivo"}, "The tested bacteria": {"test_system": "The tested bacteria", "assay": "Disc diffusion method, positive control (bacterium not specified)", "assay_type": "cell-based", "details": "positive control 3% H2O2 solution, 27° C., 48 hours", "protocol": "Bacteria were grown in nutrient broth test tubes at 27° C. for 24 hrs. The paper discs were sterilized by autoclave in preparation for the disc diffusion method. Each bacteria ([…]), was placed on Nutrient agar (NA) plates and allowed to dry for 3-5 minutes. The paper discs were saturated in 100% concentration of the oregano essential oil (20 ul), and then placed onto each NA plate freshly coated with bacteria. The positive control used was 3% H2O2 solution and the negative control was DI water. The plates were incubated at 27° C. for 48 hours. The zone of inhibition was measured by standard ruler."}, "[1]": {"details": "plants sprayed with emulsion of 25% oregano oil with 5% sesame oil made with the emulsifier, data not shown"}},
  "data": [
    {"molecule": "Triton X100", "values": [
      {"measurement": "Phytotoxicity on pepper plants", "setting": "pepper plants; [1]", "result": "phytotoxicity"}
    ]},
    {"molecule": "OO", "note": "[P. control, H2O2]", "values": [
      {"measurement": "Inhibition zone (mm)", "setting": "The tested bacteria", "result": 8, "unit": "mm"}
    ]},
    {"molecule": "CCCCCCCC/C=C\\CCCCCCCC(=O)OCCOCC(OCCO)C1OCC(OCCO)C1OCCO", "note": "(centres unmarked) [Tween 80]", "values": [
      {"measurement": "Phytotoxicity on pepper plants", "setting": "pepper plants; [1]", "result": "phytotoxicity"}
    ]},
    {"molecule": "CCCCCCCCCCCCCCCCCC(=O)[O-].[Na+]", "note": "[sodium stearate, Sodium Stearate]", "values": [
      {"measurement": "Phytotoxicity on pepper plants", "setting": "pepper plants; [1]", "result": "very vital"}
    ]},
    {"molecule": "CCCCCCCCCCCCOS(=O)(=O)[O-].[Na+]", "note": "[SDS]", "values": [
      {"measurement": "Phytotoxicity on pepper plants", "setting": "pepper plants; in vivo", "result": "phytotoxicity"}
    ]}
  ]
}
